{
  "source": "patent US20240408219A1",
  "about": "“BICYCLIC PEPTIDE LIGAND DRUG CONJUGATES” (priority 2021, published 2024)",
  "system": "HT1080 xenograft",
  "assay": "In vivo efficacy test in HT1080 xenograft in BALB/c nude mice (Example 1)",
  "procedure": "[table] • Species: Mus Musculus • Strain: […] Shanghai LC Laboratory Animal Co., LTD. […] The tumor cells were routinely subcultured twice weekly by trypsin-EDTA treatment. The cells growing in an exponential growth phase were harvested and counted for tumor inoculation. […] The test article administration and the animal numbers in each group were shown in the experimental design table. […] All the procedures related to animal handling, care and the treatment in the study were performed according to the guidelines approved by the Institutional Animal Care and Use Committee (IACUC) of WuXi AppTec, following the guidance of the Association for Assessment and Accreditation of Laboratory Animal Care (AAALAC). At the time of routine monitoring, the animals were daily checked for any effects of tumor growth and treatments on normal behavior such as mobility, food and water consumption (by looking only), body weight gain/loss, eye/hair matting and any other abnormal effect as stated in the protocol. Death and observed clinical signs were recorded on the basis of the numbers of animals within each subset. The major endpoint was to see if the tumor growth could be delayed or mice could be cured. […] The tumor size was then used for calculations of T/C value. The T/C value (in percent) is an indication of antitumor effectiveness; T and C are the mean volumes of the treated and control groups, respectively, on a given day. TGI was calculated for each group using the formula: […] Ti is the average tumor volume of a treatment group on a given day, TO is the average tumor volume of the treatment group on the day of treatment start, Vi is the average tumor volume of the vehicle control group on the same day with Ti, and VO is the average tumor volume of the vehicle group on the day of treatment start. Summary statistics, including mean and the standard error of the mean (SEM), are provided for the tumor volume of each group at each time point. Statistical analysis of difference in tumor volume among the groups was conducted on the data obtained at the best therapeutic time point after the final dose. A one-way ANOVA was performed to compare tumor volume among groups, and when a significant F-statistics (a ratio of treatment variance to the error variance) was obtained, comparisons between groups were carried out with Games-Howell test. All data were analyzed using Prism.",
  "note": "“And” between values parts separate entries of the source, which are not always exact repeats. Equal values may be shown once. Numbered stars: 1 amine (or outer) side, 2 acyl side, 3 side chain; on linkers, the order of the positions; unused ones are H or OH. Bridge positions count the residues as written; N and C are the ends. Square brackets hold non-standard residues; d marks the D form. Ends that are not written are not given here. 1Nal = N[C@@H](Cc1cccc2ccccc12)C(=O)O; TBMB = c1c(C[*:1])cc(C[*:3])cc1C[*:2]; Tle = CC(C)(C)[C@H](N)C(=O)O; βAla = NCCC(=O)O; Sar = CNCC(=O)O",
  "data": [
    {"substance": "BT17BDC70: Reference bicyclic peptide drug conjugate (Tet-MMAE); BICY comprises βAla-Sar10-A-(SEQ ID NO: 1) ([βAla][Sar][Sar][Sar][Sar][Sar][Sar][Sar][Sar][Sar][Sar]AC[dA]NE[1Nal][dA]CEDFYD[Tle]C-NH2; linker 13-19-26 via TBMB; also: Tet-MMAE conjugate)", "values": [
      {"measurement": "Antitumor activity (in words)", "setting": "0.1 mg/kg biw", "result": "did not produce significant antitumor activity"},
      {"measurement": "Antitumor activity (in words)", "setting": "0.3 mg/kg biw", "result": "did not produce significant antitumor activity"},
      {"measurement": "Tumor volume (mean ± SEM)", "setting": "0.1 mpk iv biw, day 0 after the start of treatment", "result": "170 ± 21", "unit": "mm^3"},
      {"measurement": "Tumor volume (mean ± SEM)", "setting": "0.1 mpk iv biw, day 2", "result": "400 ± 45", "unit": "mm^3"},
      {"measurement": "Tumor volume (mean ± SEM)", "setting": "0.1 mpk iv biw, day 4", "result": "557 ± 23", "unit": "mm^3"},
      {"measurement": "Tumor volume (mean ± SEM)", "setting": "0.1 mpk iv biw, day 7", "result": "1017 ± 180", "unit": "mm^3"},
      {"measurement": "Tumor volume (mean ± SEM)", "setting": "0.1 mpk iv biw, day 9", "result": "1102 ± 295", "unit": "mm^3"},
      {"measurement": "Tumor volume (mean ± SEM)", "setting": "0.1 mpk iv biw, day 11", "result": "1133 ± 203", "unit": "mm^3"},
      {"measurement": "T/C", "setting": "0.1 mpk iv biw, day 14", "result": 129.9, "unit": "%"},
      {"measurement": "TGI", "setting": "0.1 mpk iv biw, day 14", "result": "−36.3", "unit": "%"},
      {"measurement": "Tumor volume (mean ± SEM)", "setting": "0.1 mpk iv biw, day 14", "result": "1315 mm^3 and 1315 ± 287 mm^3"},
      {"measurement": "Tumor volume (mean ± SEM)", "setting": "0.3 mpk iv biw, day 0 after the start of treatment", "result": "170 ± 27", "unit": "mm^3"},
      {"measurement": "Tumor volume (mean ± SEM)", "setting": "0.3 mpk iv biw, day 2", "result": "371 ± 63", "unit": "mm^3"},
      {"measurement": "Tumor volume (mean ± SEM)", "setting": "0.3 mpk iv biw, day 4", "result": "501 ± 91", "unit": "mm^3"},
      {"measurement": "Tumor volume (mean ± SEM)", "setting": "0.3 mpk iv biw, day 7", "result": "703 ± 69", "unit": "mm^3"},
      {"measurement": "Tumor volume (mean ± SEM)", "setting": "0.3 mpk iv biw, day 9", "result": "695 ± 60", "unit": "mm^3"},
      {"measurement": "Tumor volume (mean ± SEM)", "setting": "0.3 mpk iv biw, day 11", "result": "745 ± 60", "unit": "mm^3"},
      {"measurement": "T/C", "setting": "0.3 mpk iv biw, day 14", "result": 89.2, "unit": "%"},
      {"measurement": "TGI", "setting": "0.3 mpk iv biw, day 14", "result": 12.8, "unit": "%"},
      {"measurement": "Tumor volume (mean ± SEM)", "setting": "0.3 mpk iv biw, day 14", "result": "903 mm^3 and 903 ± 67 mm^3"},
      {"measurement": "Antitumor activity (in words)", "setting": "over all doses tested", "result": "did not produce significant antitumor activity"}
    ]}
  ]
}
